The values that follow come from US11440904B2, “Substituted pyrimidines, pharmaceutical compositions and therapeutic methods thereof” (priority 2017, dated 2022).

The term IC50 denotes the concentration at which inhibition is half-maximal. Usually EC50 stands for the concentration at which the effect is half-maximal. Read a low EC50 as an effect from little substance.

The target of one assay is BMX (Homo sapiens (Human), UniProt P51813). Briefly: 33P ATP HotSpot kinase assay, BMX. In kind it is biochemical. The conditions noted are these: 10 μM ATP. As to the method:
(§1) (See, e.g., Ma, et al, 2008 Expert Opin Drug Discov. 3(6): 607-621.)
(§2) Each of Compound-1 to Compound-24 was measured for its inhibitory activity on TEC family kinases, BMX and ITK. The measurement was carried out in the same process as described above, BMX, ITK enzymes were used.

The next assay addresses BTK wt (Homo sapiens (Human), UniProt Q06187). The assay can be described thus: 33P ATP HotSpot kinase assay, BTK wt. Type of assay: biochemical. The conditions noted are these: 10 μM ATP.
Source text: as §1

Another assay addresses EGFR wt (Homo sapiens (Human), UniProt P00533). Briefly: 33P ATP HotSpot kinase assay, EGFR wt. In kind it is biochemical. The conditions noted are these: 10 μM ATP.
Another assay has as its target ITK (Homo sapiens (Human), UniProt Q08881). The assay can be described thus: 33P ATP HotSpot kinase assay, ITK. In kind it is biochemical. To be noted: 10 μM ATP. The method, then: as §1, §2
In assay [1] the target is BTK phosphorylation at tyrosine 223 (Homo sapiens (Human), UniProt Q06187). Briefly: Immunoblot analysis of phospho-BTK(Y223) in Ramos cells. In kind it is cell-based. To be noted: 1 hr treatment, anti-IgM stimulation, western blot. As to the method:
Ramos cells were cultured in RPMI-1640 medium with 10% fetal bovine serum (FBS) and 1% penicillin/streptomycin (Gibco BRL). Before the assay, Ramos cells were counted and seeded at 1×10^6 cells/mL, cultured overnight in RPMI-1640 medium with 10% FBS, the cells were centrifuged at 950 rpm for 10 min., then 1˜2×10^6 cells were split into each tube in 300 μL medium. The cells were treated with certain compounds of Compound 1-24 at 0˜3 μM for 1 hr. in 37° C., then the cells were stimulated with 10 μg/mL of anti-IgM (BioLegend) for 5 min., followed by 3 min. spin at 2000 rpm. After aspirating the supernatant, 60 μL of RIPA lysis buffer (50 mM Tris-HCl, 1 mM EDTA, 1% NP-40, 0.5% sodium deoxycholate, and 0.1% SDS, pH 7.4, 150 mM NaCl, 1 mM Na3VO4) was added to the cell pellet to lyse the cells on ice for 30 min. After spin at 10,000 rpm for 5 min., 60 μL of the cell lysate was transferred to a fresh tube, and 20 μL of 4× LDS buffer was added to the tube. The samples were boiled on a 100° C. heat block for 10 min. 25 μL lysate was loaded on to SDS-PAGE gel (NuPAGE™ Novex™ 4-12% Bis-Tris Midi Protein Gels, cat. no. WG1402BOX, ThermoFisher) for western blotting analysis per the manufacturer's instructions. Antibodies used for immunoblot analysis include Btk and p-Btk(Y223) (cat. no. 3553 and 5082; Cell Signaling Technology, Beverly, Mass.). p-Btk(Y223) (cat. no. GTX61791; GeneTex, Inc., Irvine, Calif.). Membranes were detected using infrared fluorescence dye (IRDye® 800CW Donkey anti-Rabbit IgG (H+L), cat. no. P/N 925-32213; IRDye® 680RD Donkey anti-Mouse IgG (H+L), cat. no. P/N 925-68072 and scanned on a LiCor Odyssey scanner (LiCor Biosciences, Lincoln, Nebr.).
A general note: A western blot detects proteins with antibodies after separation by electrophoresis.

The target of the next assay is FAK (Homo sapiens (Human), UniProt Q05397). The assay can be described thus: 33P ATP HotSpot kinase assay, FAK. The conditions noted are these: read-out: IC50 FAK, 10 μM ATP.
FAK, sequence (Q05397 whole entry): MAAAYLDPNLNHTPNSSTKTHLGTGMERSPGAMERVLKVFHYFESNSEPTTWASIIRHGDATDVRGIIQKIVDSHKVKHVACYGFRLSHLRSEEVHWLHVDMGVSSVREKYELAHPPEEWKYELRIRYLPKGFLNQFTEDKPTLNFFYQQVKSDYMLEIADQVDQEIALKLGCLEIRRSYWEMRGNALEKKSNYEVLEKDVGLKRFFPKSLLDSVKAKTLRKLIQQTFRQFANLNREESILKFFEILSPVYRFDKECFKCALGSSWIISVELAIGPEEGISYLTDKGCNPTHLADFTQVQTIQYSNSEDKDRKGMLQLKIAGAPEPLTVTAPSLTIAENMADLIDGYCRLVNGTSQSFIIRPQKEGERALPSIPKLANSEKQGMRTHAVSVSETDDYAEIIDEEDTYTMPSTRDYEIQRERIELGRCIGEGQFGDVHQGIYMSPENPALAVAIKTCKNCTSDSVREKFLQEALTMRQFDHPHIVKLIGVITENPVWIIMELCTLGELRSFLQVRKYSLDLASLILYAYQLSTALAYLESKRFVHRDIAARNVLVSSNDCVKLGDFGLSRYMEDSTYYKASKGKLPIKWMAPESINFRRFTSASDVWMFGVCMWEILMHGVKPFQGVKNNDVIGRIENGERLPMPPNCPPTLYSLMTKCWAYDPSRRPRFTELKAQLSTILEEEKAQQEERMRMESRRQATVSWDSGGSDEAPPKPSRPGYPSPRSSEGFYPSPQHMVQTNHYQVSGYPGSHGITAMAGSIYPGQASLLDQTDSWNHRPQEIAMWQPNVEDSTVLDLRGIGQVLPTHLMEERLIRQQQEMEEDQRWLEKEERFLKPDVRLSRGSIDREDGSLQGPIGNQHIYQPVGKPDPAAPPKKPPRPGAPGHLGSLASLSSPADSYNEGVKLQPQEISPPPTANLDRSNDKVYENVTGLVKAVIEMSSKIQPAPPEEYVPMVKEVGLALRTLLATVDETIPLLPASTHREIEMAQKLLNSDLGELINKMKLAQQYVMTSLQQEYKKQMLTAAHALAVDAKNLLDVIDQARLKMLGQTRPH
For a further assay, the system named is EOL-1 cells. The assay can be described thus: Cancer cell growth inhibition, EOL-1. In kind it is cell-based. The conditions noted are these: Homo sapiens, EOL1, 72 hr, cell viability. The method, then:
(§3) In order to test certain compounds of Compounds 1 to 24 for cancer cell growth inhibition, a leukemia cancer cell line EOL-1, and triple negative breast cancer cell line MDA-MB-231 was used.
(§4) EOL-1 and MDA-MB-231 cells were cultured in a RPMI-1640 cell culture medium supplemented with 10% fetal bovine serum (FBS) and 1% penicillin/streptomycin (Gibco BRL).
(§5) The cancer cell lines stored in a liquid nitrogen tank were each quickly thawed at 37° C. water bath, and centrifuged to remove the DMSO in the freezing medium. The resulting cell pellet was mixed with a culture medium, incubated in a culture flask at 37° C. under 5% CO2 for 2 to 3 days. The EOL-1 cells were sub-cultured by 1:5˜10 dilution in fresh culture medium. For MD-MB-231 cells, the culture medium was removed and the remaining cells were washed with PBS (Phosphate Buffered Saline) and trypsinized by trypsin-EDTA. The detached cells were sub-cultured by 1:5˜10 dilution in fresh culture medium.
(§6) For the cell growth inhibition assay, the cells were seeded in 96-well cell culture plates at 5×10^4 cells/well for EOL-1 and 5×10^3 cells/well for MDA-MB-231 cells in 50 μL and incubated at 37° C. under 5% CO2 for 3 to 6 hr. before the compounds were added.
(§7) Certain compounds of Compounds 1-24 were dissolved in dimethylsulfoxide (DMSO) to a concentration of 10 mM. The DMSO solution containing test compound was diluted with a culture medium to a final concentration of 600 μM, and then diluted 100 times to 6 μM as top dose followed by 1:3 serial dilutions, and then add 50 μL diluted compounds to the 50 μL cells, with a final top dose at 3 μM and the plate was incubated at 37° C. under 5% CO2 for 72 hr. The cell viability was determined by Cell Meter™ Fluorimetric Cell Cytotoxicity Assay Kit (AAT Bioquest) according to the manufacturer's instructions. Briefly, thaw and warm up the Assay Solution (Component A) to 37° C., and mix it thoroughly. Add 20 μL/well (96-well plate) of Assay Solution (Component A). Mix the reagents by shaking the plate gently for 30 seconds. Incubate the cells in a 37° C., 5% CO2 incubator for 1-24 hr., protected from light. Monitor the fluorescence intensity (bottom read) at Ex/Em=540/590 nm. Alternatively, read the O.D. at 570 nm (the reference wavelength should be 600 nm) to determine the cell viability in each well.

The next assay relates to MDA-MB-231 cells. The assay can be described thus: Cancer cell growth inhibition, MDA-MB-231. Type of assay: cell-based. The conditions noted are these: Homo sapiens, 72 hr, cell viability. The method, then:
as §3, §4, §5, §6, §7

Where only a bound is given, the exact number is not on record here.

EGFR wt, sequence (P00533 25-1210): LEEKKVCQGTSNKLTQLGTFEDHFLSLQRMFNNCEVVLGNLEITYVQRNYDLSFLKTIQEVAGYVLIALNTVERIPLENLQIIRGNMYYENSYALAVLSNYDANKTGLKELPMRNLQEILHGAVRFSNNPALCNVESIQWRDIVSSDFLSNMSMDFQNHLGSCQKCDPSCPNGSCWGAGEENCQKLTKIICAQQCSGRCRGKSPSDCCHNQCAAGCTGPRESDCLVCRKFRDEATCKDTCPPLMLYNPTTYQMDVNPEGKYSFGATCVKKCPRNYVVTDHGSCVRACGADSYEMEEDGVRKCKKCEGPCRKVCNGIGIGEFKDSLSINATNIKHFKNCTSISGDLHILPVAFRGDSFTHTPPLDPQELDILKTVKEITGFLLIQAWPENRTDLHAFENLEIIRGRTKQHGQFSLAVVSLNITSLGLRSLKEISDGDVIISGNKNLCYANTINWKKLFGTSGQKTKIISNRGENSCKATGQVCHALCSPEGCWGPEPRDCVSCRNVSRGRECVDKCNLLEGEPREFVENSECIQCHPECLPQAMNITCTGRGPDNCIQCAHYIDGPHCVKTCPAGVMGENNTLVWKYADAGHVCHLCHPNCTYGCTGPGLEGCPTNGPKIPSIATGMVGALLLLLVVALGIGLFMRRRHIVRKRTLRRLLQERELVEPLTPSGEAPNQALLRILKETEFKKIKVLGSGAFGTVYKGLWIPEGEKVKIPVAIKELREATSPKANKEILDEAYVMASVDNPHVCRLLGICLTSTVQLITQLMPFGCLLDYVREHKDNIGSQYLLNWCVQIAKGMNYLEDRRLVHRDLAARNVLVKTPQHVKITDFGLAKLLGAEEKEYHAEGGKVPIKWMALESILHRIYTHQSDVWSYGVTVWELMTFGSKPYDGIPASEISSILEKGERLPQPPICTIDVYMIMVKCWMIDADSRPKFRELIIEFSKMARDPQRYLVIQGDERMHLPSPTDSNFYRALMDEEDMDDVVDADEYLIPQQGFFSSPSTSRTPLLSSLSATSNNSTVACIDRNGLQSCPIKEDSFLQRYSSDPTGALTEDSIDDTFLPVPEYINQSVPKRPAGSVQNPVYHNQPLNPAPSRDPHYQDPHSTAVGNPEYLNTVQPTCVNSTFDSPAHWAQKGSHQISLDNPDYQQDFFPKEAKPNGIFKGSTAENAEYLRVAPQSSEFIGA
ITK, sequence (Q08881 whole entry): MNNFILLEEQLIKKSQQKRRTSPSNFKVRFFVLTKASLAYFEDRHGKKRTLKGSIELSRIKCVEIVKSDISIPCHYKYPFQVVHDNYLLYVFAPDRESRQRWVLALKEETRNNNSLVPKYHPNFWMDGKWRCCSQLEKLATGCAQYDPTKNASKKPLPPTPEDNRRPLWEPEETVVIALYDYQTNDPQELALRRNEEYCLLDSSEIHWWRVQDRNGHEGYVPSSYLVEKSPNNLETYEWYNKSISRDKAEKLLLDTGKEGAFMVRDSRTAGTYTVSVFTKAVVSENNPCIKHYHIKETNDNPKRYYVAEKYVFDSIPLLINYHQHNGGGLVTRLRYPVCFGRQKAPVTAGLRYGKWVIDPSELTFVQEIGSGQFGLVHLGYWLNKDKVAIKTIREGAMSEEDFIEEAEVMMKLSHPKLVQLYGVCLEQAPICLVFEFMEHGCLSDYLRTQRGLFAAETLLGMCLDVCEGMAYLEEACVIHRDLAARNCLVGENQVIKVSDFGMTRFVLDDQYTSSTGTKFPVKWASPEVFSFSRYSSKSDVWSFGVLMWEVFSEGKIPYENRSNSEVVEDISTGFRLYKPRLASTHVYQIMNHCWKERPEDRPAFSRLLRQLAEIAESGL
BMX, sequence (P51813 whole entry): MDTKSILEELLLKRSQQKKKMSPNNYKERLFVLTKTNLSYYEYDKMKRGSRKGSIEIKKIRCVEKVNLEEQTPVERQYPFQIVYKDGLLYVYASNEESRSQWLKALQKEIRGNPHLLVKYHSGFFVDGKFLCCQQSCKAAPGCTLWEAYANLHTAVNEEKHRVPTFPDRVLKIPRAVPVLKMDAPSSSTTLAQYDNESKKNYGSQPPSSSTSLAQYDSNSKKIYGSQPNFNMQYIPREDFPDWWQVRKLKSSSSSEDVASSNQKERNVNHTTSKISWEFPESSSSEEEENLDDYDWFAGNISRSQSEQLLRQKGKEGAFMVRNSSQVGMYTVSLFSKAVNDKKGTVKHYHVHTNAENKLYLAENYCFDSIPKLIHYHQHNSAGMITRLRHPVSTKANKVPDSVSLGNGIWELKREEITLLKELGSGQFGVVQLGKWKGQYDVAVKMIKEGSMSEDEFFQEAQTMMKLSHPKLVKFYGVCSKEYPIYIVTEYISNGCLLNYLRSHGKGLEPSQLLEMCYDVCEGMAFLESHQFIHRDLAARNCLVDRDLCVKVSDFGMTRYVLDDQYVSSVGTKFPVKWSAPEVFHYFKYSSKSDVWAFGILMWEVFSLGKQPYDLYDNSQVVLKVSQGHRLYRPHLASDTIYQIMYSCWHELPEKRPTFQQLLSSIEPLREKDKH
BTK wt, sequence (Q06187 whole entry): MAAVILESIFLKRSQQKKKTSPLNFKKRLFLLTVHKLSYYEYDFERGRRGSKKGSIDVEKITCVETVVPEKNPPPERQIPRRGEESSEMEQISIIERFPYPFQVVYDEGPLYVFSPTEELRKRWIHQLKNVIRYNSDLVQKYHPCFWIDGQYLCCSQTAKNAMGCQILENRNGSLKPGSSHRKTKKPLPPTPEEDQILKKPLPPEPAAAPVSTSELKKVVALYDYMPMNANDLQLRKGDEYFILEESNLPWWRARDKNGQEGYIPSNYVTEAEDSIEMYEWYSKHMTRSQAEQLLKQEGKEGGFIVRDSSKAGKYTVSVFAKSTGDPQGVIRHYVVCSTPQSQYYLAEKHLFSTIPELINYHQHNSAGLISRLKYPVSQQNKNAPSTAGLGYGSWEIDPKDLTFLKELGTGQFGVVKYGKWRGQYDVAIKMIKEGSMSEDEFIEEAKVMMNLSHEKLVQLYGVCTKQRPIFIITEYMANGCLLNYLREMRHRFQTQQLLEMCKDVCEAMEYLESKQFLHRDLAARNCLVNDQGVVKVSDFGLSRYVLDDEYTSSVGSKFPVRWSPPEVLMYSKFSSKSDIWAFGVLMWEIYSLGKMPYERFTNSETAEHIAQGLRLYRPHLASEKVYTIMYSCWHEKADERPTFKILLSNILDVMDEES
BTK phosphorylation at tyrosine 223, sequence (Q06187 whole entry): as above
Procedure for EGFR wt: Then, Kinase assays were performed using the “HotSpot” assay platform.
Briefly, specific kinase/substrate pairs along with required cofactors were prepared in reaction buffer; 20 mM Hepes pH 7.5, 10 mM MgCl2, 1 mM EGTA, 0.02% Brij35, 0.02 mg/ml BSA, 0.1 mM Na3VO4, 2 mM DTT, 1% DMSO. Compounds were delivered into the reaction, followed about 20 minutes later by addition of a mixture of ATP (Sigma, St. Louis Mo.) and ^33P ATP (Perkin Elmer, Waltham Mass.) to a final concentration of 10 μM.
Reactions were carried out at room temperature for 120 min, followed by spotting of the reactions onto P81 ion exchange filter paper (Whatman Inc., Piscataway, N.J.). Unbound phosphate was removed by extensive washing of filters in 0.75% phosphoric acid. […] IC50 values and curve fits were obtained using Prism (GraphPad Software).

As to `C=CC(=O)Nc1cccc(Nc2nc(Nc3ccc4c(c3)OCCOCCOCCO4)ncc2F)c1` [Compound-6, N-[3-[[5-fluoro-2-(2,5,8,11-tetraoxabicyclo[10.4.0]hexadeca-1(12),13,15-trien-14-ylamino)pyrimidin-4-yl]amino]phenyl]prop-2-enamide], the IC50 against BMX was less than 100 nM; on BTK wt, less than 100 nM; at EGFR wt, 732 nM; on ITK it was less than 100 nM; on FAK, greater than 1000 nM. In assay [1], this compound returned an EC50 of less than 100 nM.
For the compound `C=CC(=O)N1CCC[C@@H](Nc2nc(Nc3ccc4c(c3)OCCOCCOCCO4)nc3[nH]cnc23)C1` [Compound-3, 1-[(3R)-3-[[2-(2,5,8,11-tetraoxabicyclo[10.4.0]hexadeca-1(12),13,15-trien-14-ylamino)-9H-purin-6-yl]amino]-1-piperidyl]prop-2-en-1-one], the IC50 at BMX is 1.69 nM; on BTK wt, 3.17 nM; on EGFR wt, 345 nM; against ITK, 39.6 nM; with EOL-1 cells it was greater than 3000 nM; with MDA-MB-231 cells, greater than 3000 nM. For the same compound, the IC50 at FAK was found to be 1240 nM. Further, in assay [1], the EC50 is less than 100 nM.
In the case of `C=CC(=O)N1CCC[C@@H](Nc2nc(Nc3ccc(OCCCOC4(CC)OCC(C)(C)CO4)cc3)ncc2F)C1` [Compound-1, 1-[(3R)-3-[[2-[4-[3-[(2-ethyl-5,5-dimethyl-1,3-dioxan-2-yl)oxy]propoxy]anilino]-5-fluoro-pyrimidin-4-yl]amino]-1-piperidyl]prop-2-en-1-one], the EC50 in assay [1] fell in the range of 100 to 1000 nM. Further, the IC50 in the assay with EOL-1 cells and with MDA-MB-231 cells was greater than 3000 nM in each case.
Regarding `c1cc(Nc2nc(Nc3ccc4c(c3)OCCOCCOCCO4)nc3[nH]cnc23)c2cc[nH]c2c1` [Compound-22, N6-(1H-indol-4-yl)-N2-(2,5,8,11-tetraoxabicyclo[10.4.0]hexadeca-1(12),13,15-trien-14-yl)-9H-purine-2,6-diamine], the IC50 at BTK wt was 21.4 nM; against EGFR wt, greater than 1000 nM; in the assay on EOL-1 cells, 1200 nM; in the assay on MDA-MB-231 cells it was greater than 3000 nM; at FAK it was 42.4 nM.
On to `CCC(=O)N1CCC[C@@H](Nc2nc(Nc3ccc4c(c3)OCCOCCOCCO4)nc3[nH]cnc23)C1` [Compound-4, 1-[(3R)-3-[[2-(2,5,8,11-tetraoxabicyclo[10.4.0]hexadeca-1(12),13,15-trien-14-ylamino)-9H-purin-6-yl]amino]-1-piperidyl]propan-1-one], for which the IC50 on BMX turned out to be 19.6 nM; against BTK wt, 144 nM; against ITK, 1450 nM; on FAK, 1150 nM. The compound further registered a concentration for a half-maximal effect (EC50) in assay [1] of 100 to 1000 nM.
As to `CN([C@@H]1CCCC[C@H]1Oc1nc(Nc2ccc3c(c2)OCCOCCOCCO3)nc2[nH]ccc12)S(C)(=O)=O` [Compound-16, N-methyl-N-[(1R,2R)-2-[[2-(2,5,8,11-tetraoxabicyclo[10.4.0]hexadeca-1(16),12,14-trien-14-ylamino)-7H-pyrrolo[2,3-d]pyrimidin-4-yl]oxy]cyclohexyl]methanesulfonamide], the IC50 at BTK wt is greater than 1000 nM; against EGFR wt, greater than 1000 nM; with EOL-1 cells, 2000 nM; in the assay with MDA-MB-231 cells, 3000 nM; at FAK it was 34.9 nM.
Take `C=CC(=O)Nc1cccc(Nc2nc(Nc3ccc4c(c3)OCCOCCOCCO4)nc3[nH]cnc23)c1` [Compound-7, N-[3-[[2-(2,5,8,11-tetraoxabicyclo[10.4.0]hexadeca-1(12),13,15-trien-14-ylamino)-9H-purin-6-yl]amino]phenyl]prop-2-enamide]: the IC50 on BMX was 0.41 nM; at BTK wt it was 0.65 nM; on EGFR wt it was 208 nM; at ITK, 1.35 nM; with EOL-1 cells it was 2500 nM; with MDA-MB-231 cells, greater than 3000 nM. Besides, the IC50 at FAK stood at 274 nM. Further, in assay [1], the EC50 is less than 100 nM.
Regarding `C=CC(=O)Nc1ccccc1Nc1nc(Nc2ccc3c(c2)OCCOCCOCCO3)ncc1F` [Compound-10, N-[2-[[5-fluoro-2-(2,5,8,11-tetraoxabicyclo[10.4.0]hexadeca-1(12),13,15-trien-14-ylamino)pyrimidin-4-yl]amino]phenyl]prop-2-enamide], the IC50 against BMX was greater than 100 nM; on BTK wt it was less than 100 nM; against EGFR wt, greater than 100 nM; against ITK, greater than 100 nM; on FAK it was greater than 100 nM. The same compound had a concentration giving a half-maximal response (EC50) in assay [1] of 100 to 1000 nM.
Consider `C=CC(=O)Nc1cccc(Nc2nc(Nc3ccc(OCCCOC4(CC)OCC(C)(C)CO4)cc3)ncc2F)c1` [Compound-5, N-[3-[[2-[4-[3-[(2-ethyl-5,5-dimethyl-1,3-dioxan-2yl)oxy]propoxy]anilino]-5-fluoro-pyrimidin-4-yl]amino]phenyl]prop-2-enamide], for which the IC50 at BMX is less than 100 nM; against BTK wt, less than 100 nM; at EGFR wt, greater than 100 nM; at ITK it was less than 100 nM; in the assay on EOL-1 cells it was 1900 nM; in the assay with MDA-MB-231 cells, 3000 nM. The half-maximal inhibitory concentration (IC50) on FAK is greater than 100 nM. Also, in assay [1], the EC50 was less than 100 nM.
Consider `CCC(=O)Nc1cccc(Nc2nc(Nc3ccc4c(c3)OCCOCCOCCO4)nc3[nH]cnc23)c1` [Compound-8, N-[3-[[2-(2,5,8,11-tetraoxabicyclo[10.4.0]hexadeca-1(12),13,15-trien-14-ylamino)-9H-purin-6-yl]amino]phenyl]propanamide], for which the IC50 against BMX is 46.4 nM; at BTK wt, 88.8 nM; against EGFR wt, greater than 1000 nM; against ITK, 1290 nM; at FAK it was 1130 nM. In assay [1], this compound had an EC50 of 100 to 1000 nM.
As to `CN(C1CCCC1Oc1nc(Nc2ccc3c(c2)OCCOCCOCCO3)nc2[nH]ccc12)S(C)(=O)=O` (stereo not shown) [Compound-18, N-methyl-N-[2-[[2-(2,5,8,11-tetraoxabicyclo[10.4.0]hexadeca-1(16),12,14-trien-14-ylamino)-7H-pyrrolo[2,3-d]pyrimidin-4-yl]oxy]cyclopentyl]methanesulfonamide], the IC50 on BTK wt is greater than 1000 nM; against EGFR wt, greater than 1000 nM; in the assay with EOL-1 cells it was 750 nM; with MDA-MB-231 cells it was 1500 nM.
